# Source: US11235023B2, “Beta-hairpin peptidomimetic with elastase inhibitory activity and aerosol dosage forms thereof” (POLYPHOR AG, priority 2016, dated 2022)
# Like-named read-outs stand apart in the source and are kept apart here. Non-standard residues stand in square brackets, D forms with d. Residues, ends and D or L forms follow the SMILES beside them. Gly(octyl) = CCCCCCCC[C@H](N)C(=O)O
# Columns and labels:
# [1] = GLP-compliant 28-day inhalation toxicity study in monkeys; format: in vivo, cynomolgus monkey
# Protocol: In a GLP-compliant 28-day inhalation toxicity study in cynomolgus monkeys, conducted by Charles River Laboratories Preclinical Services, Tranent, Edinburgh, UK, the formulation described in Example 2 and dilutions thereof as well as the vehicle were administered using the Pari eFlow® XL 30 nebulizer device (Pari Pharma, Starnberg, Germany) with an oro-nasal inhalation mask for 60 min per day for 28 days, followed by a 2-week recovery period. […] In total five males and five females were used for each dose of the toxicity study including recovery. Parameters assessed included clinical signs, body weights, electrocardiology, ophthalmic examination, clinical pathology, toxicokinetic parameters in the plasma, gross necropsy findings, organ weights and histopathologic examinations.
# [2] = Phase-Ib single ascending dose study in patients with cystic fibrosis, safety and tolerability; format: in vivo, human
# Text: In this randomised, double-blind, placebo-controlled, parallel-group (per dose level) dose-escalation study, the safety and tolerability of single ascending doses (SAD) of acetate salt of cyclo(-OctG-Glu-Thr-Ala-Ser-Ile-Pro-Pro-Gln-Lys-Tyr-^DPro-Pro-) administered by inhalation in patients with cystic fibrosis (CF) was investigated. Additionally, the pharmacokinetics of the drug following a single ascending dose in plasma and sputum as well as its pharmacodynamic effect on neutrophil elastase activity in sputum were evaluated.
# In this study, conducted by Inamed GmbH, Gauting, Germany, 24 subjects with cystic fibrosis, who fulfilled all the inclusion criteria and in whom no exclusion criterion was present, were included and received randomised treatment. They were grouped into 3 dose groups of 8 subjects each. 6 subjects received the formulation described in Example 1 and dilutions thereof and 2 subjects received placebo (0.5% [w/w] aqueous sodium chloride solution adjusted to pH 5.5 with 1 M HCl pharmaceutical grade). The oral inhalation of the above formulation as well as the placebo occurred via the Pari eFlow® XL 30 nebulizer device (Pari Pharma GmbH, Starnberg, Germany). The dose levels and corresponding concentrations of cyclo(-OctG-Glu-Thr-Ala-Ser-Ile-Pro-Pro-Gln-Lys-Tyr-^DPro-Pro-) (active compound) are summarized in Table 14.
# (§1) The volume of placebo nebulizer solution corresponded to that of the active compound at a particular dose level. The duration of inhalation was estimated to be between 7 and 20 min. Adverse events were tabulated and summarized according to the current version of Medical Dictionary for Regulatory Activities.
# neutrophil elastase = assay: LPS/fMLP model of neutrophil activation in the rat, neutrophil elastase activity in BAL supernatant; format: in vivo; details: for NE activity: BAL 6 h post LPS, mean ± s.e.m., vehicle 0.25 ± 0.02
# [3] = Phase-Ib study in CF patients, plasma pharmacokinetics (LC-MS/MS); format: in vivo; details: human, inhaled or intranasal; for Tmax: inhalation, CF patients; for level at 24 h: read-out: mean plasma concentration 24 hours after inhalation; for half-life: read-out: mean terminal half-life (plasma) (converted)
# Protocol: AUC0-∞, AUC0-∞/D, Cmax, Cmax/D of active compound in plasma as primary variables and tmax, t1/2, λ2, […] of active compound in plasma as secondary variables.
# Blood samples for the determination of the plasma concentrations of active compound were taken at the following points in time:
# On Day 1 at pre-dose, 10 min, and 0.5 h, 1 h, 2 h, 3 h, 4 h, 6 h, 8 h, 12 h, 15 h, and on Day 2 at 24 h post dose (after start of inhalation).
# The samples were collected in closed K3-EDTA plasma sampling tubes (Monovette® Sarstedt, Germany). The accepted time-interval for sample handling procedures for each individual study sample, i.e., the time between sample collection and sample centrifugation had not to exceed 60 min, and the time between the end of centrifugation and sample freezing had also not to exceed 60 min.
# The samples were centrifuged at approximately 4° C. (±2° C.) at 2200×g for 15 min.
# The resulting plasma supernatant was then transferred into 2 polypropylene tubes (1st aliquot of at least 1 mL and backup) and frozen in upright position below […]
# For the analysis of active compound in plasma, a validated and highly sensitive liquid chromatography tandem mass spectrometry (LC-MS/MS) method was used.
# The pharmacokinetic parameters mentioned above were calculated based on actual blood and sputum sampling times using non-compartmental procedures.
# [4] = First-in-man study in healthy subjects, safety and tolerability of orally inhaled single doses; format: in vivo, human
# Text: In this randomised, double-blind, placebo-controlled, parallel-group (per dose level) dose-escalation study of inhaled single doses in 48 healthy subjects in six dose groups of eight subjects each, conducted by Inamed GmbH, Gauting, Germany, the controlled oral inhalation of the formulation described in Example 1 and dilutions thereof as well as the placebo (0.5% [w/w] aqueous sodium chloride solution adjusted to pH 5.5 with 1 M HCl pharmaceutical grade) occurred via the Pari eFlow® XL 30 nebulizer device (Pari Pharma GmbH, Starnberg, Germany). The dose levels and corresponding concentrations of cyclo(-OctG-Glu-Thr-Ala-Ser-Ile-Pro-Pro-Gln-Lys-Tyr-^DPro-Pro-) (active compound) are summarized in Table 10.
# as §1, with “depended on the total volume of nebulizer solution and ranged” for “was estimated to be”, “several minutes” for “7”, “roughly one hour.” for “20 min.”
smiles,measurement,setting,value
"CCCCCCCC[C@@H]1NC(=O)[C@@H]2CCCN2C(=O)[C@H]2CCCN2C(=O)[C@H](Cc2ccc(O)cc2)NC(=O)[C@H](CCCCN)NC(=O)[C@H](CCC(N)=O)NC(=O)[C@@H]2CCCN2C(=O)[C@@H]2CCCN2C(=O)[C@H]([C@@H](C)CC)NC(=O)[C@H](CO)NC(=O)[C@H](C)NC(=O)[C@H]([C@@H](C)O)NC(=O)[C@H](CCC(=O)O)NC1=O [active compound, cyclo(-OctG-Glu-Thr-Ala-Ser-Ile-Pro-Pro-Gln-Lys-Tyr-^DPro-Pro-)] (cyclo([Gly(octyl)]ETASIPPQKY[dP]P))",NOAEL at 28 days,"[1]; both sexes, in vivo, inhaled or intranasal, cynomolgus monkey, oro-nasal inhalation 60 min per day for 28 days",112 mg/kg/day
same,Haematology and clinical pathology,"[1]; cynomolgus monkey, in vivo","some minor, toxicologically insignificant changes"
same,Histopathologic findings,"[1]; cynomolgus monkey, in vivo","increased numbers of alveolar macrophages, perivascular/peribronchiolar infiltrates, and granular eosinophilic deposits in the lung and lymphoid hyperplasia in the tracheobronchial lymph nodes"
same,Gross findings: lung weight,[1]; male monkeys at 112 mg/kg/day,increased lung weight
same,"Body weight, clinical signs, ophthalmic, electrocardiographic and urinary findings","[1]; monkey, 11.2, 30.1 and 112 mg/kg/day","no body weight changes, clinical signs, ophthalmic or electrocardiographic findings or changes in urinary parameters attributable to drug treatment"
same,"Deaths, serious and other significant adverse events","[2]; CF patients, single inhaled doses 80, 160, 320 mg","No death, no serious adverse events (AE) and no other significant AE"
same,Causal relationship of TEAEs,"[2]; human, in vivo",not related to the active compound
same,Inhalation-related local AEs,"[2]; human, in vivo",no inhalation-related local AEs
same,Total number of AEs (all TEAEs),"[2]; human, in vivo",6
same,Effect on neutrophil elastase activity in BAL fluid,"neutrophil elastase; 0.3, 3 and 30 mg/kg by inhalation 3 h post LPS, 1 h prior to fMLP",significantly inhibited
same,Test item related clinical signs,neutrophil elastase; between dosing period and study termination,No test item related clinical signs were observed
same,NE activity,neutrophil elastase; inhalation 0.3 mg/kg,0.10 ± 0.01 mU/mL eq.
same,NE activity,neutrophil elastase; inhalation 3 mg/kg,0.11 ± 0.01 mU/mL eq.
same,NE activity,neutrophil elastase; inhalation 30 mg/kg,0.07 ± 0.01 mU/mL eq.
same,Efficacy in previous intratracheal study,neutrophil elastase; intratracheal doses of 0.03 to 3 mg/kg,efficacious
same,Tmax,[3]; dose group 1 (80 mg),1.3 h
same,level at 24 h,[3]; dose group 1 (80 mg),2.8 ng/mL
same,half-life,[3]; dose group 1 (80 mg),4.1 h
same,Tmax,[3]; dose group 2 (160 mg),1.5 h
same,level at 24 h,[3]; dose group 2 (160 mg),4.4 ng/mL
same,half-life,[3]; dose group 2 (160 mg),3.5 h
same,Tmax,[3]; dose group 3 (320 mg),2.3 h
same,level at 24 h,[3]; dose group 3 (320 mg),15.2 ng/mL
same,half-life,[3]; dose group 3 (320 mg),3.8 h
same,"Deaths, serious and other significant adverse events","[4]; healthy subjects, single inhaled doses 20-960 mg","No death, no serious adverse events (AE) and no other significant AE"
same,"Inhalation-related adverse events ('cough'), local tolerability","[4]; human, in vivo",three
same,Number of subjects with AEs,"[4]; human, in vivo",13
same,Number of treatment-emergent adverse events (TEAEs),"[4]; human, in vivo",24
same,Proportion of subjects with AEs,"[4]; human, in vivo",27.1%
same,Subjects judging overall tolerability as 'very good' or 'good',"[4]; human, in vivo",97.9%
